Source: US11555036B2, “FGFR4 inhibitor, preparation method therefor and pharmaceutical use thereof” (Abbisko Therapeutics Co., Ltd., priority 2016, dated 2023)

Columns and labels:
[1] = target: FGFR4 (Homo sapiens, UniProt P22455); experiment: FGFR4 Caliper Assay (in vitro biochemical kinase analysis of FGFR4); conditions: read-out: Enzymatic activity FGFR4 IC50
Procedure: I. In Vitro Biochemical Kinase Analysis of FGFR4
FGFR4 Caliper Assay was used in the present invention to determine the inhibitory activities of the compounds against FGFR4. The detailed experimental procedure was as follows.
2. A reaction system is a mixture solution of 50 mM HEPES, pH 7.5, 1 mM DTT, 0.02% Tween 20, 0.02% BSA, 0.6% DMSO, 10 mM beta glycerol phosphate and 10 μM sodium orthovanadate and 16 mM MgCl2.
3. The reaction system was incubated at 30° C. for 40 minutes.
4. The reaction was terminated by adding a stop solution (100 mM HEPES, pH 7.5, 5% DMSO, 0.1% Caliper coating reagent, 10 mM EDTA and 0.015% Brij35).
5. The culture plate with the terminated kinase reaction was transferred to the Caliper LC 3000 workstation to read the data, the phosphorylated and unphosphorylated peptides were separated by using the Caliper microfluid migration shift technique, and the analyte was transferred by allowing a constant buffer flow through the chip, the migration of the substrate peptide was monitored by the labeled fluorescent signal, and the kinase activity was calculated by using the amount of the phosphate-based peptide formed.
6. Finally, IC50 values were determined by non-linear regression analysis of percent inhibition at different compound concentrations.

[2] = system: Huh7 hepatocellular carcinoma cells; experiment: FGFR4 cell proliferation experiment, Cell Titer Glo (CTG); format: cell-based; conditions: HuH-7 cells, 3 days; for IC50: concentration leading to absolute half growth inhibition; for EC50: concentration leading to half maximal growth inhibition
Procedure: II. FGFR4 Cell Proliferation Experiment
Cell Titer Glo (CTG) experiment was used in the present invention to evaluate the functional effects of the compounds on cell proliferation. […] Compound-mediated inhibition of cell proliferation/survival was assessed by quantification of cellular ATP levels using CTG reagent (Promega, #G7573). The specific experimental procedure was as follows:
2. 10 μL of medium containing a compound concentration of 10 fold of its final test concentration was added;
3. The dose effect was evaluated by a 5-fold serial dilution of the test compound, starting from 10 μM.
4. After cells incubation for 3 days at 37° C. under 5% CO2, the effect of the inhibitor on cell proliferation was quantified after adding 50 μL of CTG and testing with luminescence.

Chain of FGFR4 (P22455 22-802): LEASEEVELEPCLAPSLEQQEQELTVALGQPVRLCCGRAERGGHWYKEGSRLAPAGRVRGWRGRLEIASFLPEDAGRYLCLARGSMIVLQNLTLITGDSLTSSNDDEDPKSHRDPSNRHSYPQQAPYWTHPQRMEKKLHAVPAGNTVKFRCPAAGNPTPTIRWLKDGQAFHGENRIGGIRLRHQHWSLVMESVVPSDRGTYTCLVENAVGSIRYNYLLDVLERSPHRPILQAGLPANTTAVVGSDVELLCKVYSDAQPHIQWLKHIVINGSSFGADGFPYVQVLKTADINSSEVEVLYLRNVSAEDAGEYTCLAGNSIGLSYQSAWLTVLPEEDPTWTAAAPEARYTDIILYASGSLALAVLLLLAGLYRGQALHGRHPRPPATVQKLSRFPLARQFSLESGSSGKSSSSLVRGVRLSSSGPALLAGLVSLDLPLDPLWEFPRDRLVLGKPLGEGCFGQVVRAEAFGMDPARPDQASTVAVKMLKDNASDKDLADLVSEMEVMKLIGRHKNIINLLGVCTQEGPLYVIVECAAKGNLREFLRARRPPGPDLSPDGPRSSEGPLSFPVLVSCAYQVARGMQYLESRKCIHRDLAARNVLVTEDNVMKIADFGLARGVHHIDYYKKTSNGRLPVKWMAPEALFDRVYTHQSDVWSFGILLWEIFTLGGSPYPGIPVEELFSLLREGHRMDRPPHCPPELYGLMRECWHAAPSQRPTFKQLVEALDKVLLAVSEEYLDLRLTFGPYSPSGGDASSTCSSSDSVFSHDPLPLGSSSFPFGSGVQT

SMILES	IC50 [1]	IC50 ([2]; Homo sapiens, Huh-7, 72 h)	EC50 ([2]; Homo sapiens, Huh-7, 72 h)	IC50 [2]	EC50 [2]
C=CC(=O)N[C@H]1COC[C@H]1Nc1ncc2cc(-c3c(F)c(OC)cc(OC)c3F)nc(N3CC4CC(C3)O4)c2n1 [Example 769, N-((3R,4S)-4-((8-(6-oxa-3-azabicyclo[3.1.1]heptan-3-yl)-6-(2,6-difluoro-3,5-dimethoxy-phenyl)pyrido[3,4-d]pyrimidin-2-yl)amino)tetrahydrofuran-3-yl)acrylamide]	3.7 nM	10 nM	8.4 nM	–	–
C=CC(=O)N[C@H]1COC[C@H]1Nc1cc2cnc(-c3c(Cl)c(OC)cc(OC)c3Cl)cc2cn1 [Example 124, N-((3R,4S)-4-((7-(2,6-dichloro-3,5-dime-thoxyphenyl)-2,6-naphthyridin-3-yl)amino)tetrahydrofuran-3-yl)acrylamide]	61.6 nM	556 nM	303 nM	–	–
C=CC(=O)Nc1cccc(C)c1Nc1cc2c(OC)nc(-c3c(Cl)c(OC)cc(OC)c3Cl)cc2cn1 [Example 9, N-(2-((7-(2,6-dichloro-3,5-dimethoxyphenyl)-5-dimethoxy-2,6-naphthyridin-3-yl)amino)-3-methylphenyl)acryl-amide]	138 nM	1050 nM	89 nM	–	–
C=CC(=O)N[C@H]1COC[C@H]1Nc1ncc2cc(-c3c(Cl)c(OC)cc(OC)c3Cl)nc(N3CC(CO)(CO)C3)c2n1 [Example 759, N-((3R,4S)-4-((8-(3,3-bis(hydroxy-methyl)azetidin-1-yl)-6-(2,6-dichloro-3,5-dimethoxyphenyl)pyrido[3,4-d]py-rimidin-2-yl)amino)tetrahydrofuran-3-yl)acrylamide]	5.7 nM	61.1 nM	42.2 nM	–	–
C=CC(=O)N[C@H]1COC[C@H]1Nc1ncc2cc(-c3c(Cl)c(OC)cc(OC)c3Cl)nc(N3CCC(OC)C3)c2n1 (stereo partly drawn) [Example 677, N-((3R,4S)-4-((6-(2,6-dichloro-3,5-dimethoxyphenyl)-8-(3-methoxypyrro-lidin-1-yl)pyrido[3,4-d]pyrimidin-2-yl)amino)tetrahydrofuran-3-yl)acryl-amide]	7.4 nM	5.3 nM	3.7 nM	–	–
C=CC(=O)N[C@H]1COC[C@H]1Nc1ncc2cc(-c3c(Cl)c(OC)cc(OC)c3Cl)nc(N3CC4(CCOCC4)C3)c2n1 [Example 776, N-((3R,4S)-4-((6-(2,6-dichloro-3,5-dimethoxyphenyl)-8-(7-oxa-2-azaspiro [3.5]nonan-2-yl)pyrido[3,4-d]pyrimi-din-2-yl)amino)tetrahydrofuran-3-yl)acrylamide]	4.9 nM	–	–	9.4 nM	7.9 nM
C=CC(=O)N[C@H]1COC[C@H]1Nc1ncc2cc(-c3c(Cl)c(OC)cc(OC)c3Cl)ncc2n1 (racemic) [Example 118, (±)—N-((3R,4S)-4-((6-(2,6-dichloro-3,5-dimethoxyphenyl)pyrido[3,4-d]pyrimidin-2-yl)amino)tetrahydrofuran-3-yl)acrylamide]	80.5 nM	333 nM	179 nM	–	–
C=CC(=O)Nc1cc(N2CCN(C)CC2)cc(C)c1Nc1cc2c(=O)n(C)c(-c3c(Cl)c(OC)cc(OC)c3Cl)nc2cn1 [Example 75, N-(2-((2-(2,6-dichloro-3,5-dimethoxyphenyl)-3-methyl-4-oxo-3,4-dihydropyrido [3,4-d]pyrimidin-6-yl)amino)-3-methyl-5-(4-methyl-piperazin-1-yl)phenyl) acrylamide]	247 nM	> 10000 nM	> 10000 nM	–	–
C=CC(=O)N[C@H]1COC[C@H]1Nc1ncc2cc(-c3c(Cl)c(OC)cc(OC)c3Cl)nc(N3CCC(C)(O)C3)c2n1 (stereo partly drawn) [Example 760, N-((3R,4S)-4-((6-(2,6-dichloro-3,5-dimethoxyphenyl)-8-(3-hydroxy-3-methylpyrrolidin-1-yl)pyrido[3,4-d]py-rimidin-2-yl)amino)tetarhydrofuran-3-yl)acrylamide]	2.9 nM	6.7 nM	5.5 nM	–	–
C=CC(=O)N[C@H]1COC[C@H]1Nc1ncc2cc(-c3c(Cl)c(OC)cc(OC)c3Cl)nc(C3=CCOCC3)c2n1 [Example 756, N-((3R,4S)-4-((6-(2,6-dichloro-3,5-dimethoxyphenyl)-8-(3,6-dihydro-2H-pyran-4-yl)pyrido[3,4-d]pyrimidin-2-yl)amino)tetrahydrofuran-3-yl)acryl-amide]	20.2 nM	31 nM	19 nM	–	–

Now from value to compound:

IC50 [1]	IC50 ([2]; Homo sapiens, Huh-7, 72 h)	EC50 ([2]; Homo sapiens, Huh-7, 72 h)	IC50 [2]	EC50 [2]	SMILES
11 nM	37.2 nM	18.5 nM	–	–	C=CC(=O)N[C@H]1COC[C@H]1Nc1ncc2cc(-c3c(F)c(OC)cc(OC)c3F)nc(NCC3CC3)c2n1 [Example 424, N-((3R,4S)-4-((8-((cyclopropylmeth-yl)amino)-6-(2,6-difluoro-3,5-dimeth-oxyphenyl)pyrido[3,4-d]pyrimidin-2-yl)amino)tetrahydrofuran-3-yl)acryl-amide]
19.1 nM	93.5 nM	32 nM	–	–	C=CC(=O)N[C@H]1COC[C@H]1Nc1ncc2cc(-c3c(Cl)c(OC)cc(OC)c3Cl)nc(NCCNS(C)(=O)=O)c2n1 [Example 430, N-((3R,4S)-4-((6-(2,6-dichloro-3,5-dimethoxyphenyl)-8-((2-(methyl-sulfonamido)ethyl)a-mino)pyrido[3,4-d]pyri-midin-2-yl)amino)tetrahydrofuran-3-yl)acrylamide]
4 nM	12.5 nM	9.9 nM	–	–	C=CC(=O)N[C@H]1COC[C@H]1Nc1ncc2cc(-c3c(F)c(OC)cc(OC)c3F)nc(N3CC(F)(F)C3)c2n1 [Example 768, N-((3R,4S)-4-((6-(2,6-difluoro-3,5-dimethoxyphenyl)-8-(3,3-difluoro-azetidin-1-yl)pyrido[3,4-d]pyrimi-din-2-yl)amino)tetrahydro-furan-3-yl)acrylamide]
4.8 nM	6.9 nM	5.5 nM	–	–	C=CC(=O)N[C@H]1CCOC[C@H]1Nc1ncc2cc(-c3c(F)c(OC)cc(OC)c3F)nc(N3CCC(OC)C3)c2n1 (stereo partly drawn) [Example 794, N-((3S,4S)-3-((6-(2,6-difluoro-3,5-dimethoxyphenyl)-8-(3-methoxy-pyrrolidin-1-yl)pyrido[3,4-d]py-rimidin-2-yl)amino)tetrahydro-2H-pyran-4-yl)acrylamide]
6.5 nM	16.5 nM	13.3 nM	–	–	C=CC(=O)N[C@H]1COC[C@H]1Nc1ncc2cc(-c3c(F)c(OC)cc(OC)c3F)nc(N3CCC(OC)C3)c2n1 (stereo partly drawn) [Example 678, N-((3R,4S)-4-((6-(2,6-difluoro-3,5-di-methoxyphenyl)-8-(3-methoxypyrro-lidin-1-yl)pyrido[3,4-d]pyrimidin-2-yl)amino)tetrahydrofuran-3-yl)acryl-amide]
23.4 nM	41.1 nM	25.7 nM	–	–	C=CC(=O)N[C@H]1COC[C@H]1Nc1ncc2cc(-c3c(Cl)c(OC)cc(OC)c3Cl)nc(C)c2n1 [Example 606, N-((3R,4S)-4-((6-(2,6-dichloro-3,5-di-methoxyphenyl)-8-methylpyrido[3,4-d]pyrimidin-2-yl)amino)tetrahydro-furan-3-yl)acrylamide]
45 nM	103 nM	86 nM	–	–	C=CC(=O)N[C@H]1CCOC[C@H]1Nc1ncc2cc(-c3c(F)c(OC)cc(OC)c3F)nc(NCC)c2n1 [Example 787, N-((3S,4S)-3-((6-(2,6-difluoro-3,5-dimethoxyphenyl)-8-(ethylamino)pyri-do[3,4-d]pyrimidin-2-yl)amino)tetra-hydro-2H-pyran-4-yl)acrylamide]
8800 nM	> 10000 nM	2390 nM	–	–	C=CC(=O)N[C@H]1COC[C@H]1Nc1ncc2cc(-c3c(Cl)c(OC)cc(OC)c3Cl)nc(OCC3CC3)c2n1 [Example 498, N-((3R,4S)-4-((8-(cyclopropylmethoxy)-6-(2,6-dichloro-3,5-dimethoxyphen-nyl)pyrido[3,4-d]pyrimidin-2-yl)amino)tetrahydrofuran-3-yl)acrylamide]
8 nM	68.4 nM	28 nM	–	–	C=CC(=O)N[C@H]1COC[C@H]1Nc1ncc2cc(-c3c(Cl)c(OC)cc(OC)c3Cl)nc(NC3CC3)c2n1 [Example 655, N-((3R,4S)-4-((8-(cyclopropylamino)-6-(2,6-dichloro-3,5-dimethoxyphen-yl)pyrido[3,4-d]pyrimidin-2-yl)amino)tetrahydrofuran-3-yl)acrylamide]
14.5 nM	38.3 nM	24.6 nM	–	–	C=CC(=O)N[C@H]1COC[C@H]1Nc1ncc2cc(-c3c(Cl)c(OC)cc(OC)c3Cl)nc(NCC(C)(C)C)c2n1 [Example 462, N-((3R,4S)-4-((6-(2,6-dichloro-3,5-di-methoxyphenyl)-8-(neopentylamino)pyrido[3,4-d]pyrimidin-2-yl)amino)tetrahydrofuran-3-yl)acrylamide]
